From publication PMC10303271, “Synthesis and Receptor Binding Studies of α5 GABAAR Selective Novel Imidazodiazepines Targeted for Psychiatric and Cognitive Disorders” (Molecules, 2023) come the findings set out here.

One assay deals with T1, 5-HT6 (Homo sapiens, UniProt P50406).
T1 construct: purchased NIMH Psychoactive Drug Screening Program (PDSP)
Description: PDSP primary binding 5-HT6. The conditions noted are these: 1.5 h; primary binding, 10,000 nM; last figure of the line = mean of the 4 before it; read-out: 5-HT6, PDSP raw data, mean. As for the experimental part:
(§1) To determine if any off-target receptor-binding effects are present, all the novel ligands were sent to the National Institute of Mental Health (NIMH), Psychoactive Drug Screening Program (PDSP). The ligands were screened over a panel of 47 receptors, ion channels, and transporters to determine any other possible interactions with […]. The hERG-binding was also determined. […] No binding of the test compounds to calcium channels was observed. […] It is necessary to screen the compounds for hERG-binding during the early process of drug discovery. The unintentional binding of many drugs to hERG can cause blockade of hERG K+ channels in the heart, which can cause many side effects including cardiac arrhythmias and sudden death. […] All of the α5 imidazodiazepines were tested for hERG-binding.
(§2) The NIMH PDSP assay protocol book [https://kidbdev.med.unc.edu/databases/PDSP%20Protocols%20II%202013-03-28.pdf accessed on 23 April 2023]. describes the protocols for primary and secondary radio-ligand binding assays. These assays were carried out in a final volume of 125 µL per well in the appropriate binding buffer.
(§3) The binding of a ligand to a receptor, ion channel, or transporter was determined in the […] of 10 µM of the appropriate reference compound. […] Plates were incubated in the dark for 90 min at rt, and the reactions were stopped by vacuum filtration onto 0.3% polyethyleneimine (PEI) soaked 96-well filter mats using a 96-well Filtermateharvester. This was followed by three washes with cold PBS buffer. Radioactivity was then counted on a Microbeta counter. Nonlinear regression was used to analyze the data with N = 6 replicates.

A further assay relates to AMPA. Description: PDSP primary binding AMPA. The settings on record: primary binding, 10,000 nM; last figure of the line = mean of the 4 before it. The protocol:
as §1, §2, §3

For another assay, the target named is T2, 5-HT3 (Homo sapiens, UniProt P46098).
T2 construct: purchased NIMH Psychoactive Drug Screening Program (PDSP)
T2 sequence (P46098 24-478): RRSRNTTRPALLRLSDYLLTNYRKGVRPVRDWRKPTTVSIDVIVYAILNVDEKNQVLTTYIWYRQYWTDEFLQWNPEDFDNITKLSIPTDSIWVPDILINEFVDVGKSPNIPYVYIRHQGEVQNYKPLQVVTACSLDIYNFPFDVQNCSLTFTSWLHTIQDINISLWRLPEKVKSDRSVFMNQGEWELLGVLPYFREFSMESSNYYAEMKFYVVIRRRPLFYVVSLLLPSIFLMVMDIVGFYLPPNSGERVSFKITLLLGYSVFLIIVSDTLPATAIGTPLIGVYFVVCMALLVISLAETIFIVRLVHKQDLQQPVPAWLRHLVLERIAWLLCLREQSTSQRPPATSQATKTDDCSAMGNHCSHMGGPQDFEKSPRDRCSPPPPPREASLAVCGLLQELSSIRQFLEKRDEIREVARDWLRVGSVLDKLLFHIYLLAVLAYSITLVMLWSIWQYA
Description: PDSP primary binding 5-HT3. The conditions noted are these: 1.5 h; primary binding, 10,000 nM; last figure of the line = mean of the 4 before it; read-out: 5-HT3, PDSP raw data, mean. As for the experimental part: as §1, §2, §3

In another assay the target is T3, MOR (Homo sapiens, UniProt P35372).
T3 construct: purchased NIMH Psychoactive Drug Screening Program (PDSP)
T3 sequence (P35372 whole entry): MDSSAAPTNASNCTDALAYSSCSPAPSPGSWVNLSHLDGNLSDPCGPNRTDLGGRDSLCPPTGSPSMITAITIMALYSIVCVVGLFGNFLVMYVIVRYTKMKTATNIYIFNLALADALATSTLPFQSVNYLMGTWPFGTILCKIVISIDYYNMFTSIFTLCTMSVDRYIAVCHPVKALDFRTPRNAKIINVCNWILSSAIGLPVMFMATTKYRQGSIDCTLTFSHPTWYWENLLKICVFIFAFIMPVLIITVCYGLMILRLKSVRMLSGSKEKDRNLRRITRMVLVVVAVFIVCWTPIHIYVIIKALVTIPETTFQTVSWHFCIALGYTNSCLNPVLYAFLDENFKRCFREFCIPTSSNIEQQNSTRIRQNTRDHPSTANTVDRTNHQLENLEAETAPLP
Description: PDSP radioligand binding at MOR. The conditions noted are these: 1.5 h.
Description: Opioid receptors are a family of inhibitory G-coupled protein receptors where opioids act as the ligand. The kappa opioid receptors (KOR), µ and δ opioid receptors (MOR and DOR), and nociception opioid receptor (NOP) fall under the family of opioids receptors. It has been reported that oxadiazole imidazodiazepines can mediate analgesic and anti-inflammatory properties mediated also by the κ opioid receptor (KOR). The binding at KOR is usually silent. The affinities of the test compounds for KOR, DOR, and MOR were determined using radioligand binding assays at a screening concentration of 10,000 nM in collaboration with the National Institute of Mental Health’s Psychoactive Drug Screening Program (PDSP), as mentioned before. Concentration-dependent experiments were conducted to determine Ki values for the compounds that exceeded more than 50% radioligand displacement in primary binding assays.
as §2, §3

Another assay addresses T4, V1B (Homo sapiens, UniProt P47901).
T4 construct: purchased NIMH Psychoactive Drug Screening Program (PDSP)
T4 sequence (P47901 1-424): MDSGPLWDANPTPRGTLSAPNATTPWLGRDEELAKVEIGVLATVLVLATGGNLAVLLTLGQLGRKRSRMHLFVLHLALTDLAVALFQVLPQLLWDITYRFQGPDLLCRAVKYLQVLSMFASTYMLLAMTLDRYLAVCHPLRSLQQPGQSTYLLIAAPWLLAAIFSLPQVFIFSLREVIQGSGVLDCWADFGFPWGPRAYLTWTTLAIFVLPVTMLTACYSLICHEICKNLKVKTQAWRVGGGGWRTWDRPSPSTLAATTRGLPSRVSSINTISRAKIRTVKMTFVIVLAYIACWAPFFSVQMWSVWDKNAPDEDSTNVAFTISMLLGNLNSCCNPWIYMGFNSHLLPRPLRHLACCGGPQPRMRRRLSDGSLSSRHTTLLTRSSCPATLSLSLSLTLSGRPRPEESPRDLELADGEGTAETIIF
Put plainly: PDSP primary binding V1B. The conditions noted are these: primary binding, 10,000 nM; last figure of the line = mean of the 4 before it; read-out: V1B, PDSP raw data, mean. The protocol: as §1, §2, §3

The next assay deals with T5, Beta3 (Homo sapiens, UniProt P13945).
T5 construct: purchased NIMH Psychoactive Drug Screening Program (PDSP)
T5 sequence (P13945 whole entry): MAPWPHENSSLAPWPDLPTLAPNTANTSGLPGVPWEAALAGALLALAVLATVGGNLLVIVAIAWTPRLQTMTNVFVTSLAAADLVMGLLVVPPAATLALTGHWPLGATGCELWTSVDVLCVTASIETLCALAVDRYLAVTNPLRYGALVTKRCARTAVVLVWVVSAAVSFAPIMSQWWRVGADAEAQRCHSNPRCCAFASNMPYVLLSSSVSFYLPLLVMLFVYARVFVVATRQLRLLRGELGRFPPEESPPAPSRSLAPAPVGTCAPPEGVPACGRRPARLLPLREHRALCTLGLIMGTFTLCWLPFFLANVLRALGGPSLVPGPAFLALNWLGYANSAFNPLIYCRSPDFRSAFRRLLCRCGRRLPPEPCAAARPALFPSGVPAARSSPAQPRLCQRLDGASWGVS
Description: PDSP primary binding Beta3. The conditions noted are these: 1.5 h; primary binding, 10,000 nM; last figure of the line = mean of the 4 before it; read-out: Beta3, PDSP raw data, mean. The protocol: as §1, §2, §3

Another assay concerns the target T6, H3 (Homo sapiens, UniProt Q9Y5N1).
T6 construct: purchased NIMH Psychoactive Drug Screening Program (PDSP)
Description: PDSP primary binding H3. The settings on record: primary binding, 10,000 nM; last figure of the line = mean of the 4 before it; read-out: H3, PDSP raw data, mean. As for the experimental part: as §1, §2, §3

The target of a further assay is T7, HCA2 (Homo sapiens, UniProt Q8TDS4).
T7 construct: purchased NIMH Psychoactive Drug Screening Program (PDSP)
T7 sequence (Q8TDS4 whole entry): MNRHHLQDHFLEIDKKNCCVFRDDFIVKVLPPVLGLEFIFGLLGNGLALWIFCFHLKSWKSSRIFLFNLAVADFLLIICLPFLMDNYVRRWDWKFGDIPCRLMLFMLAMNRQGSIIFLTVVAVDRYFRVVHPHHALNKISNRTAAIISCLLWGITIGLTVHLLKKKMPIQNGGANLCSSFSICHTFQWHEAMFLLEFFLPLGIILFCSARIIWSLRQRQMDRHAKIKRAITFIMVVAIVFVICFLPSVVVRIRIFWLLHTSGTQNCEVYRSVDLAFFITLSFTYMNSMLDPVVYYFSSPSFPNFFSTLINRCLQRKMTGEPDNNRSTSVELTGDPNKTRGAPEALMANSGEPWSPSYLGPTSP
Description: PDSP primary binding HCA2. The settings on record: primary binding, 10,000 nM; last figure of the line = mean of the 4 before it; read-out: HCA2, PDSP raw data, mean. The protocol:
as §1, §2, §3

Where [1] appears, read: at 10,000 nM, N = 5, [3H]-DAMGO 1.20 nM, read-out: Primary Binding %MOR.
The mark [2] stands for this setting: primary binding, 10,000 nM, last figure of the line = mean of the 4 before it, read-out: MOR, PDSP raw data, mean.

Where two headings read alike, the source gives them in different places.

T6 sequence (Q9Y5N1 whole entry): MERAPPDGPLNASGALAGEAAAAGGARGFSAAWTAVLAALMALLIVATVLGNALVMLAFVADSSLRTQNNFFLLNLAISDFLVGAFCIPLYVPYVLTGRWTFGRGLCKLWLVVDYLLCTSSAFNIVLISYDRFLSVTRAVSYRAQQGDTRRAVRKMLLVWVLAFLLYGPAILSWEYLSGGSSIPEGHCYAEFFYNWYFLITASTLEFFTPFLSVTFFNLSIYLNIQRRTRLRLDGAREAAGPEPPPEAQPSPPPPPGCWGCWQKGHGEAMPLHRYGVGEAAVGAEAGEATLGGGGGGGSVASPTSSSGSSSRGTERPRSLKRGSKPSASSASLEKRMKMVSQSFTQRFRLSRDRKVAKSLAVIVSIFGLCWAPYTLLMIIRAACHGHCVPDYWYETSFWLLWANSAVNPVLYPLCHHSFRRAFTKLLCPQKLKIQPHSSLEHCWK
T1 sequence (P50406 whole entry): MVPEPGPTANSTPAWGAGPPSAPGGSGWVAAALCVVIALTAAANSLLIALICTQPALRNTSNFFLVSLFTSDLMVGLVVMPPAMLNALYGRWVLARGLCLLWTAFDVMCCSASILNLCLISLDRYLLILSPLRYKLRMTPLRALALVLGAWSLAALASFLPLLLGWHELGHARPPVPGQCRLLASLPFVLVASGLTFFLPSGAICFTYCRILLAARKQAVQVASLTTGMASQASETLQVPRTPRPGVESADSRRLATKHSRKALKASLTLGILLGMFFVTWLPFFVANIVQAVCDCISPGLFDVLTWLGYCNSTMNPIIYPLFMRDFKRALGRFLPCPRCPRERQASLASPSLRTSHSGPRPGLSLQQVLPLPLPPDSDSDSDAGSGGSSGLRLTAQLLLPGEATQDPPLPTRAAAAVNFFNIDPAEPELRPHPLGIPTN

As for `C#Cc1ccc2c(c1)C(c1ccccn1)=N[C@@H](C)c1c(C(=O)N(C)C)ncn1-2` [Compound 31, (S)-8-Ethynyl-N,N,4-trimethyl-6-(pyridin-2′-yl)-4H-benzo[f]imidazo[1,5-a][1,4]diazepine-3-carboxamide], the inhibition at 10 µM on 5-HT6 was 18.1%; at 5-HT3, -3.58%; at MOR (setting [1]) it was 4.55 ± 12.5%; at MOR (setting [2]), 4.55%; at V1B, 24.3%; at Beta3, -6.68%. In addition, the inhibition at 10 µM on H3 is -5.55%; on HCA2 it was 20.8%. Besides, in the assay with AMPA, the “AMPA, PDSP raw data, mean” value is recorded as -10.56%.
Turning to `CC(C)c1noc(-c2ncn3c2[C@@H](C)N=C(c2ccccc2F)c2cc(Cl)ccc2-3)n1` [Compound 37, (R)-5-(8-Chloro-6-(2′-fluorophenyl)-4-methyl-4H-benzo[f]imidazo[1,5-a][1,4]diazepin-3-yl)-3-isopropyl-1,2,4-oxadiazole], the inhibition at 10 µM is -1.65% on 5-HT6; 13.5% at 5-HT3; 48.6 ± 4.17% on MOR (setting [1]); 48.6% on MOR (setting [2]); -15.4% at V1B; 46% on Beta3. For the same compound, the inhibition at 10 µM at H3 was 6.42%; on HCA2 it was 35.2%. Besides, in the assay with AMPA, the “AMPA, PDSP raw data, mean” value turned out to be 20.59%.
As for `C#Cc1ccc2c(c1)C(c1ccccn1)=N[C@@H](C)c1c(C(=O)NC)ncn1-2` [Compound 23, (S)-8-Ethynyl-N,4-dimethyl-6-(pyridin-2′-yl)-4H-benzo[f]imidazo[1,5-a][1,4]diazepine-3-carboxamide], the inhibition at 10 µM was 18.1% on 5-HT6; -7.15% on 5-HT3; 5.24 ± 10.7% at MOR (setting [1]); 5.24% on MOR (setting [2]); -4.18% on V1B; 0.63% on Beta3. For the same compound, the inhibition at 10 µM was -12.8% at H3 and 15.2% at HCA2. In addition, the “AMPA, PDSP raw data, mean” value with AMPA is -17.23%.
